Where two headings read alike, the source gives them in different places. Values belong to the molecule of their own block, whether it stands above or below them.
How the values were obtained:
[1] = system: respiratory syncytial virus; settings: cited from earlier work
RSV Long strain = experiment: Virus cytopathic effect (CPE) assay, anti-RSV activity in HEp-2 cells; format: cell-based; settings: human respiratory syncytial virus, 96 h, RSV Long strain 0.5 MOI, CellTiter-Glo after 4 days
Method: HEp-2 cells (ATCC CCL-23, human laryngeal carcinoma epithelial cells) were purchased from American Type Culture Collection and the culture conditions were as follows: 1% double antibody was added to Dulbecco modified Eagle medium (DMEM) medium containing 10% fetal bovine serum (FBS), and maintained in a 5% CO2 incubator and cultured at 37° C. To evaluate the anti-RSV activity of compounds, cells were seeded in a 96-well plate at a density of 5×10^3 cells/well in Hyclone™ (DMEM) containing 10% fetal bovine serum (FBS). The following day, cells were infected with a 0.5 MOI of RSV Long strain (ATCC) in the presence of 3-fold serial dilutions of compound to a total volume of 100 μL per well. The cell viability was evaluated by the cell counting kit CellTiter-Glo Reagent after 4 days. The fluorescence signal was read on a multi-mode microplate reader and the 50% effective concentration EC50 was determined by the fluorescence value. The RSV inhibition activities of the compounds involved in Examples 1 to 15 disclosed herein were evaluated according to the above method, and the results are shown in Table 3 below.

[2] = Pharmacokinetics in ICR mice, plasma drug concentrations; format: in vivo; settings: for AUC(0-inf) / Cmax / Tmax / clearance / half-life / AUC(0-t) / Vd: ICR, mouse plasma; for AUC(0-t): read-out: AUC0-12; for Vd: read-out: Vss; for concentration at 0.083 h / concentration at 0.25 h / concentration at 0.5 h / concentration at 1 h / concentration at 2 h / concentration at 4 h / concentration at 8 h / concentration at 24 h / concentration at 12 h: mouse, plasma; for concentration at 0.083 h / concentration at 0.25 h / concentration at 0.5 h / concentration at 1 h / concentration at 2 h / concentration at 4 h / concentration at 8 h / concentration at 24 h / F / concentration at 12 h: ICR mice; for F: p.o. 10 mg/kg vs i.v. 2 mg/kg
Method: The pharmacokinetics were further tested of Example 4 and Example 7 disclosed herein and Example 61-1 (Comparative Example 1) in patent WO2013020993 in ICR mice. A single intravenous injection (dose of 2 mg/kg) and a single oral administration (dose of 10 mg/kg) were taken respectively. Blood collection point: before administration, 5 min, 15 min, 30 min, 1 h, 2 h, 4 h, 8 h, 12 h, 24 h after administration. The same method was applied to the pharmacokinetics of the above Comparative Example 1 in ICR mice, with a single intravenous injection (dose of 2 mg/kg) and a single oral administration (dose of 10 mg/kg) respectively.

RSV = settings: oral; cited from earlier work

SMILES: CC(C)C(=O)OC[C@@]1(CCl)O[C@@H](n2ccc(N)nc2=O)[C@H](F)[C@@H]1OC(=O)C(C)C [ALS-8176]
- volunteers with reduced respiratory syncytial virus load [1]: more than 85%

SMILES: Cc1ccc2nc(N3CCS(=O)(=O)c4ccccc4C3)nc(NCC3CNC3)c2c1 [Example 2, 4-(4-((Azetidin-3-ylmethyl)amino)-6-methylquinazolin-2-yl)-2,3,4,5-tetrahydrobenzo[f][1,4]thiazepine 1,1-dioxide]
- IC50 (RSV Long strain): 6.3 nM

SMILES: O=S1(=O)CCN(c2nc(NC3CNC3)c3cc(C(F)F)ccc3n2)Cc2ccccc21 [Example 6, 4-(4-(Azetidin-3-ylamino)-6-(difluoromethyl)quinazolin-2-yl)-2,3,4,5-tetrahydrobenzo[f][1,4]thiazepine 1,1-dioxide]
- IC50 (RSV Long strain): 4.9 nM

SMILES: Cc1ccc2nc(N3CCS(=O)(=O)c4ccccc4C3)nc(N3CCC(O)(CN)C3)c2c1 (centres unmarked) [Example 9, 4-(4-(3-(Aminomethyl)-3-hydroxypyrrolidin-1-yl)-6-methylquinazolin-2-yl)-2,3,4,5-tetrahydrobenzo[f][1,4]thiazepine 1,1-dioxide]
- IC50 (RSV Long strain): 0.9 nM

SMILES: Cc1ccc2nc(N3CCS(=O)(=O)c4ccccc4C3)nc(N3CC(O)(CN)C3)c2c1 [Example 10, 4-(4-(3-(Aminomethyl)-3-hydroxyazetidin-1-yl)-6-methylquinazolin-2-yl)-2,3,4,5-tetrahydrobenzo[f][1,4]thiazepine 1,1-dioxide]
- IC50 (RSV Long strain): 3.3 nM

SMILES: Cc1ccc2nc(N3CCS(=O)(=O)c4ccccc4C3)nc(N3CC(CN)C3)c2c1 [Example 11, 4-(4-(3-(Aminomethyl)azetidin-1-yl)-6-methylquinazolin-2-yl)-2,3,4,5-tetrahydrobenzo[f][1,4]thiazepine 1,1-dioxide]
- IC50 (RSV Long strain): 1.2 nM

SMILES: Cc1ccc2nc(N3CCS(=O)(=O)c4ccccc4C3)nc(N3CC(N)(CN)C3)c2c1 [Example 13, 4-(4-(3-Amino-3-(aminomethyl)azetidin-1-yl)-6-methylquinazolin-2-yl)-2,3,4,5-tetrahydrobenzo[f][1,4]thiazepine 1,1-dioxide]
- IC50 (RSV Long strain): 9.6 nM

SMILES: Cc1ccc2nc(N3CCS(=O)(=O)c4ccccc4C3)nc(NC3CC4(CNC4)C3)c2c1 [Example 15, 4-(4-((2-azaspiro[3.3]heptan-6-yl)amino)-6-methylquinazolin-2-yl)-2,3,4,5-tetrahydrobenzo[f][1,4]thiazepine 1,1-dioxide]
- IC50 (RSV Long strain): 3.7 nM

SMILES: Cc1cn2nc([C@@H]3CCCCN3C(=O)c3cc(Cl)ccc3NS(C)(=O)=O)cc2nc1N1CC[C@H](N)C1 [GS-5806]
- viral load, mucus quantity and symptom scores (RSV): decrease viral load, mucus quantity and symptom scores

Further lines, results first:

- IC50 (RSV Long strain): 4.4 nM
SMILES: Cc1ccc2nc(N3CCS(=O)(=O)c4ccccc4C3)nc(N3CC(N)C3)c2c1 [Example 1, 4-(4-(3-Aminoazetidin-1-yl)-6-methylquinazolin-2-yl)-2,3,4,5-tetrahydrobenzo[f][1,4]thiazepine 1,1-dioxide]

- IC50 (RSV Long strain): 5 nM
SMILES: Cc1ccc2nc(N3CCS(=O)(=O)c4ccccc4C3)nc(N3CC(CN)(CO)C3)c2c1 [Example 3, 4-(4-(3-(Aminomethyl)-3-(hydroxymethyl)azetidin-1-yl)-6-methylquinazolin-2-yl)-2,3,4,5-tetrahydrobenzo[f][1,4]thiazepine 1,1-dioxide]

- IC50 (RSV Long strain): 7 nM
- AUC(0-inf) ([2]; iv, i.v. 2 mg/kg): 1010 ng·h/mL
- Cmax ([2]; iv, i.v. 2 mg/kg): 82.4 ng/mL
- Tmax ([2]; iv, i.v. 2 mg/kg): 4 h
- clearance ([2]; iv, i.v. 2 mg/kg): 32.8 mL/min/kg
- half-life ([2]; iv, i.v. 2 mg/kg): 3.4 h
- AUC(0-t) ([2]; iv, i.v. 2 mg/kg): 1010 ng·h/mL
- Vd ([2]; iv, i.v. 2 mg/kg): 13.1 L/kg
- AUC(0-inf) ([2]; po, p.o. 10 mg/kg): 3780 ng·h/mL
- Cmax ([2]; po, p.o. 10 mg/kg): 505 ng/mL
- Tmax ([2]; po, p.o. 10 mg/kg): 2 h
- half-life ([2]; po, p.o. 10 mg/kg): 3.3 h
- AUC(0-t) ([2]; po, p.o. 10 mg/kg): 3760 ng·h/mL
- concentration at 0.083 h ([2]; iv, i.v. 2 mg/kg): 38 ng/mL
- concentration at 0.25 h ([2]; iv, i.v. 2 mg/kg): 38.4 ng/mL
- concentration at 0.5 h ([2]; iv, i.v. 2 mg/kg): 30.7 ng/mL
- concentration at 1 h ([2]; iv, i.v. 2 mg/kg): 34.5 ng/mL
- concentration at 2 h ([2]; iv, i.v. 2 mg/kg): 43.9 ng/mL
- concentration at 4 h ([2]; iv, i.v. 2 mg/kg): 82.4 ng/mL
- concentration at 8 h ([2]; iv, i.v. 2 mg/kg): 62.8 ng/mL
- concentration at 24 h ([2]; iv, i.v. 2 mg/kg): 1.7 ng/mL
- concentration at 0.083 h ([2]; po, p.o. 10 mg/kg): 49.7 ng/mL
- concentration at 0.25 h ([2]; po, p.o. 10 mg/kg): 274 ng/mL
- concentration at 0.5 h ([2]; po, p.o. 10 mg/kg): 407 ng/mL
- concentration at 1 h ([2]; po, p.o. 10 mg/kg): 432 ng/mL
- concentration at 2 h ([2]; po, p.o. 10 mg/kg): 505 ng/mL
- concentration at 4 h ([2]; po, p.o. 10 mg/kg): 380 ng/mL
- concentration at 8 h ([2]; po, p.o. 10 mg/kg): 128 ng/mL
- concentration at 24 h ([2]; po, p.o. 10 mg/kg): 5.4 ng/mL
- F [2]: 74.6%
SMILES: NC1CN(c2nc(N3CCS(=O)(=O)c4ccccc4C3)nc3ccc(C(F)F)cc23)C1 [Example 4, 4-(4-(3-Aminoazetidin-1-yl)-6-(difluoromethyl)quinazolin-2-yl)-2,3,4,5-tetrahydrobenzo[f][1,4]thiazepine 1,1-dioxide]

- IC50 (RSV Long strain): 7.9 nM
SMILES: NCC1(CO)CN(c2nc(N3CCS(=O)(=O)c4ccccc4C3)nc3ccc(C(F)F)cc23)C1 [Example 5, 4-(4-(3-(Aminomethyl)-3-(hydroxymethyl)azetidin-1-yl)-6-(difluoromethyl)quinazolin-2-yl)-2,3,4,5-tetrahydrobenzo[f][1,4]thiazepine 1,1-dioxide]

- IC50 (RSV Long strain): 4.1 nM
- AUC(0-inf) ([2]; iv, i.v. 2 mg/kg): 579 ng·h/mL
- Cmax ([2]; iv, i.v. 2 mg/kg): 815 ng/mL
- Tmax ([2]; iv, i.v. 2 mg/kg): 0.08 h
- clearance ([2]; iv, i.v. 2 mg/kg): 57.6 mL/min/kg
- half-life ([2]; iv, i.v. 2 mg/kg): 1.6 h
- AUC(0-t) ([2]; iv, i.v. 2 mg/kg): 573 ng·h/mL
- Vd ([2]; iv, i.v. 2 mg/kg): 3.33 L/kg
- AUC(0-inf) ([2]; po, p.o. 10 mg/kg): 481 ng·h/mL
- Cmax ([2]; po, p.o. 10 mg/kg): 287 ng/mL
- Tmax ([2]; po, p.o. 10 mg/kg): 0.5 h
- half-life ([2]; po, p.o. 10 mg/kg): 1.3 h
- AUC(0-t) ([2]; po, p.o. 10 mg/kg): 476 ng·h/mL
- concentration at 0.083 h ([2]; iv, i.v. 2 mg/kg): 815 ng/mL
- concentration at 0.25 h ([2]; iv, i.v. 2 mg/kg): 540 ng/mL
- concentration at 0.5 h ([2]; iv, i.v. 2 mg/kg): 335 ng/mL
- concentration at 1 h ([2]; iv, i.v. 2 mg/kg): 128 ng/mL
- concentration at 2 h ([2]; iv, i.v. 2 mg/kg): 35 ng/mL
- concentration at 4 h ([2]; iv, i.v. 2 mg/kg): 12.3 ng/mL
- concentration at 8 h ([2]; iv, i.v. 2 mg/kg): 2.7 ng/mL
- concentration at 12 h ([2]; iv, i.v. 2 mg/kg): 1.3 ng/mL
- concentration at 24 h ([2]; iv, i.v. 2 mg/kg): 1.5 ng/mL
- concentration at 0.083 h ([2]; po, p.o. 10 mg/kg): 233 ng/mL
- concentration at 0.25 h ([2]; po, p.o. 10 mg/kg): 262 ng/mL
- concentration at 0.5 h ([2]; po, p.o. 10 mg/kg): 287 ng/mL
- concentration at 1 h ([2]; po, p.o. 10 mg/kg): 180 ng/mL
- concentration at 2 h ([2]; po, p.o. 10 mg/kg): 50.1 ng/mL
- concentration at 4 h ([2]; po, p.o. 10 mg/kg): 16.7 ng/mL
- concentration at 8 h ([2]; po, p.o. 10 mg/kg): 4.6 ng/mL
- concentration at 12 h ([2]; po, p.o. 10 mg/kg): 2.9 ng/mL
- concentration at 24 h ([2]; po, p.o. 10 mg/kg): 1.4 ng/mL
- F [2]: 16.62%
SMILES: NC1(CNc2nc(N3CCS(=O)(=O)c4ccccc4C3)nc3ccc(C(F)F)cc23)COC1 [Example 7, 4-(4-(((3-Aminooxetan-3-yl)methyl)amino)-6-(difluoromethyl)quinazolin-2-yl)-2,3,4,5-tetrahydrobenzo[f][1,4]thiazepine 1,1-dioxide]

- IC50 (RSV Long strain): 2.9 nM
SMILES: Cc1ccc2nc(N3CCS(=O)(=O)c4ccccc4C3)nc(NCC3(O)CNC3)c2c1 [Example 8, 4-(4-(((3-Hydroxyazetidin-3-yl)methyl)amino)-6-methylquinazolin-2-yl)-2,3,4,5-tetrahydrobenzo[f][1,4]thiazepine 1,1-dioxide]

- IC50 (RSV Long strain): 1.7 nM
SMILES: Cc1ccc2nc(N3CCS(=O)(=O)c4ccccc4C3)nc(NC3CC(N)C3)c2c1 (centres unmarked) [Example 12, 4-(4-((3-Aminocyclobutyl)amino)-6-methylquinazolin-2-yl)-2,3,4,5-tetrahydrobenzo[f][1,4]thiazepine 1,1-dioxide]

- IC50 (RSV Long strain): 1.3 nM
SMILES: Cc1ccc2nc(N3CCS(=O)(=O)c4ccccc4C3)nc(N[C@H]3CNC[C@@H]3O)c2c1 [Example 14, 4-(4-(((3S,4S)-4-hydroxypyrrolidin-3-yl)amino)-6-methylquinazolin-2-yl)-2,3,4,5-tetrahydrobenzo[f][1,4]thiazepine 1,1-dioxide]

Reference: patent US12582661B2, “Synthesis and application of class of respiratory syncytial virus inhibitors” (SHANGHAI ARK BIOPHARMACEUTICAL CO., LTD., priority 2020, dated 2026)
